Values quoted from earlier work as cited in patent US8778301B2, “Gamma-hydroxybutyrate compositions containing carbohydrate, lipid or amino acid carriers” (Orphan Medical, Inc., priority 2000, dated 2014).
Structures can show the parent of a compound that is named as a salt.

What was measured:
[1] = heroin and methadone withdrawal
[2] = not given; remark: listed apart in the source
[3] = in vivo
[4] = intravenous administration, patients
[5] = healthy volunteers, 12.5, 25 and 50 mg/kg
[6] = patients
[7] = patients; remark: listed apart in the source
[8] = not given; remark: listed apart in the source

SMILES: O=C(O)CCCO [GHB monosodium salt, sodium oxybate]
- duration of normal sequence of NREM and REM sleep (healthy human volunteers, low doses (about 30 mg/kg)): 2 to 3 h
- tolerance to sleep-inducing effects (low doses, over time): without the development of tolerance

SMILES: O=C(O)CCCO [GHB, Gamma-hydroxybutyric acid]
- symptoms of opiate withdrawal [1]: decrease the symptoms of opiate withdrawal
- organ or other toxicities in periodic clinical laboratory tests ([2]; long-term treatment of narcolepsy): have not indicated organ or other toxicities
- development of tolerance ([2]; patients treated for many years): without development of tolerance
- signs and symptoms of narcolepsy (daytime sleepiness, cataplexy, sleep paralysis, hypnagogic hallucinations) [3]: substantially reduces the signs and symptoms of narcolepsy
- intracranial pressure [4]: reduce intracranial pressure
- oral absorption and elimination processes [5]: capacity-limited
- growth hormone levels [6]: increase growth hormone levels
- alcohol craving, daily drinks, alcohol withdrawal symptoms [7]: reduce alcohol craving, the number of daily drinks consumed, and the symptoms of alcohol withdrawal
- continuity of sleep ([8]; clinical trials): improves the continuity of sleep
- delta sleep ([8]; clinical trials): increases delta sleep
- REM latency ([8]; human, in vivo): decreases REM latency
- sleep apnea ([8]; human, in vivo): reduces sleep apnea
- total sleep time and REM sleep ([8]; human, in vivo): increases total sleep time and REM sleep
